# Several values for one entry are separate records, joined by “and”; a condition that tells them apart may be missing. Equal entries are not always repeated.
# Legend:
# [1] = test system: anti collagen antibodies induced arthritis (ACAIA); assay: ACAIA mice: hot plate withdrawal latency; format: in vivo, Balb/c mice
# Experimental: On days 0, 5 and 11 animals are placed on hot plate apparatus (53±1° C.) and the time until the first response is observed and recorded.
# [2] = test system: E-cadherin; assay: RHE vitiligo model: E-cadherin secretion by ELISA; format: cell-based, human; details: Rux 1.5%, 48 h
# Experimental: (§1) […] Three epidermis samples per condition are fixed in 4% formaldehyde solution and embedded in paraffin for further analysis (morphology analysis, melanin and melanocytes localisation/quantification). Three other epidermis samples per condition are put in a specific lysis buffer for total RNA extraction.
# (§2) At the end of the treatments, culture media is collected (from 3 epidermis per condition), aliquoted and stored at −20° C. until use in ELISA assays. The quantity of MMP-9 secreted by the epidermis at the end of the treatments is analysed using the human MMP-9 Quantikine ELISA kit (Bio-Techne; DMP900). The secretion of E-cadherin in culture media is measured using to human E-cadherin Quantikine ELISA kit (Bio-Techne; DCADE0) dedicated for the measurement of natural human E-cadherin in culture supernates, serum, plasma, urine, and saliva.
# (§3) The ELISAs are performed following the instructions of the supplier. The quantities of MMP-9 and E-cadherin are determined by comparisons with standard curves performed with recombinant human MMP-9 or E-cadherin provided in the kits.
# (§4) Quantification of secretion of MMP-9 and E-cadherin by ELISA from collected culture medium was conducted in accordance with Method E. The results, shown in FIG. 5A and FIG. 5B are based on Tables 23 and 24 respectively and presented in percentage of release in comparison to the stimulated control. A statistical analysis (student t-test) was performed to compare the effects of the treatments with the formulations to the vehicle (with $: 0.05>p>0.01; $$: 0.01>p>0.001; and $$$: p<0.001). The same analysis was performed to compare the effects of the vehicle and of the unstimulated control to the stimulated control (with *: 0.05>p>0.01; **: 0.01>p>0.001; and ***: p<0.001). The analysis was performed from three replicates per condition (n=3). The mean of the three values and the standard deviation are presented on the histograms in FIG. 5A and FIG. 5B. As shown in Table 21 and FIG. 5A and consistent with the results of Part A, MMP-9 secretion was increased following the stimulation with the cytokines, which validates the assay.
# [3] = test system: MMP-9; assay: RHE vitiligo model: MMP-9 secretion by ELISA; format: cell-based, human; details: Rux 1.5%, 48 h
# Experimental: as §1, §2, §3, §4
# [4] = TNF-α/IFN-γ stimulated RHE, replicates N1-N3
# [5] = culture medium of RHE, TNF-α 12 ng/ml/IFN-γ 12 ng/ml
# [6] = culture medium of RHE, TNF-α 12 ng/ml/IFN-γ 12 ng/ml, replicates N1-N3
Compound,"Hot Plate Change in withdrawal latency (Avg.) ([1]; 1 mg/kg IA, Baseline) [s]","Hot Plate Change in withdrawal latency (Avg.) ([1]; 1 mg/kg IA, Day 5) [s]","Hot Plate Change in withdrawal latency (Avg.) ([1]; 1 mg/kg IA, Day 11) [s]","Hot Plate Change in withdrawal latency (Avg.) ([1]; 1 mg/kg IP, Baseline) [s]","Hot Plate Change in withdrawal latency (Avg.) ([1]; 1 mg/kg IP, Day 5) [s]","Hot Plate Change in withdrawal latency (Avg.) ([1]; 1 mg/kg IP, Day 11) [s]",E-Cad (% stimulated ctl) Mean ([2]; TNF-α/IFN-γ stimulated RHE) [%],"E-Cad (% stimulated ctl) [2, 4]","Mean conc E-Cad [2, 5] [ng/mL]","Conc E-Cad [2, 6]",MMP-9 (% stimulated ctl) Mean ([3]; TNF-α/IFN-γ stimulated RHE) [%],"MMP-9 (% stimulated ctl) [3, 4]","Mean conc MMP-9 [3, 5] [ng/mL]","Conc MMP-9 [3, 6]"
C[C@@H]1C[C@H]2[C@@H]3CCC4=CC(=O)C=C[C@]4(C)[C@@]3(F)[C@@H](O)C[C@]2(C)[C@@]1(O)C(=O)CO [Dex],11.71,10.14,12.86,11.86,12.43,12.29,–,–,–,–,–,–,–,–
N#CC[C@H](C1CCCC1)n1cc(-c2ncnc3[nH]ccc23)cn1 [Rux],–,–,–,–,–,–,160,77% and 247% and 155%,3.7,1.8 ng/mL and 5.7 ng/mL and 3.6 ng/mL,11,2% and 28% and 4%,2.0,0.4 ng/mL and 4.9 ng/mL and 0.7 ng/mL
